Source: PubChem BioAssay (NCI)
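Compound exposure: 48 hours, 5 concentrations, 96-well plates. GI50 is the concentration that inhibits growth by half. At the TGI there is no net growth.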

Tests used:
Assay in all cases: NCI tumour cell line growth inhibition, 48 h
786-0 renal = tested on: 786-0 renal
A498 renal = tested on: A498 renal
A549 NSCLC = tested on: A549 NSCLC
ACHN renal = tested on: ACHN renal
BT-549 breast = tested on: BT-549 breast
CAKI-1 renal = tested on: CAKI-1 renal
CCRF-CEM leukemia = tested on: CCRF-CEM leukemia
COLO 205 colon = tested on: COLO 205 colon
DU-145 prostate = tested on: DU-145 prostate
HCC-2998 colon = tested on: HCC-2998 colon
HCT-116 colon = tested on: HCT-116 colon
HCT-15 colon = tested on: HCT-15 colon
HL-60(TB) leukemia = tested on: HL-60(TB) leukemia
HOP-62 NSCLC = tested on: HOP-62 NSCLC
HOP-92 NSCLC = tested on: HOP-92 NSCLC
HS 578T breast = tested on: HS 578T breast
HT29 colon = tested on: HT29 colon
IGROV1 ovarian = tested on: IGROV1 ovarian
K-562 leukemia = tested on: K-562 leukemia
KM12 colon = tested on: KM12 colon
LOX IMVI melanoma = tested on: LOX IMVI melanoma
M14 melanoma = tested on: M14 melanoma
MALME-3M melanoma = tested on: MALME-3M melanoma
MCF7 breast = tested on: MCF7 breast
MDA-MB-231 breast = tested on: MDA-MB-231 breast
MDA-MB-435 = tested on: MDA-MB-435
MOLT-4 leukemia = tested on: MOLT-4 leukemia
NCI-H226 lung = tested on: NCI-H226 lung
NCI-H23 lung = tested on: NCI-H23 lung
NCI-H460 lung = tested on: NCI-H460 lung
NCI-H522 lung = tested on: NCI-H522 lung
NCI/ADR-RES ovarian = tested on: NCI/ADR-RES ovarian
OVCAR-3 ovarian = tested on: OVCAR-3 ovarian
OVCAR-4 ovarian = tested on: OVCAR-4 ovarian
OVCAR-5 ovarian = tested on: OVCAR-5 ovarian
OVCAR-8 ovarian = tested on: OVCAR-8 ovarian
RPMI-8226 leukemia = tested on: RPMI-8226 leukemia
RXF 393 renal = tested on: RXF 393 renal
SF-268 CNS = tested on: SF-268 CNS
SF-295 CNS = tested on: SF-295 CNS
SF-539 CNS = tested on: SF-539 CNS
SK-MEL-28 melanoma = tested on: SK-MEL-28 melanoma
SK-MEL-5 melanoma = tested on: SK-MEL-5 melanoma
SK-OV-3 ovarian = tested on: SK-OV-3 ovarian
SN12C renal = tested on: SN12C renal
SNB-19 CNS = tested on: SNB-19 CNS
SNB-75 CNS = tested on: SNB-75 CNS
SR leukemia = tested on: SR leukemia
SW-620 colon = tested on: SW-620 colon
T-47D breast = tested on: T-47D breast
TK-10 renal = tested on: TK-10 renal
U251 CNS = tested on: U251 CNS
UACC-257 melanoma = tested on: UACC-257 melanoma
UACC-62 melanoma = tested on: UACC-62 melanoma
UO-31 renal = tested on: UO-31 renal
PC-3 prostate = tested on: PC-3 prostate
SK-MEL-2 melanoma = tested on: SK-MEL-2 melanoma

## COc1cc(/C=C/C(=O)c2c(-c3ccc(Cl)cc3)nc3sc(C)nn23)cc(OC)c1OC
786-0 renal
  GI50: 51.2 µM
  TGI: > 100 µM
A498 renal
  GI50: 51.9 µM
  TGI: > 100 µM
A549 NSCLC
  GI50: 49.5 µM
  TGI: > 100 µM
ACHN renal
  GI50: 20.8 µM
  TGI: > 100 µM
BT-549 breast
  GI50: 7.77 µM
  TGI: 77.7 µM
CAKI-1 renal
  GI50: 54 µM
  TGI: > 100 µM
CCRF-CEM leukemia
  GI50: 3.92 µM
  TGI: 87.7 µM
COLO 205 colon
  GI50: 60.8 µM
  TGI: > 100 µM
DU-145 prostate
  GI50: > 100 µM
  TGI: > 100 µM
HCC-2998 colon
  GI50: > 100 µM
  TGI: > 100 µM
HCT-116 colon
  GI50: 15.7 µM
  TGI: > 100 µM
HCT-15 colon
  GI50: 15.8 µM
  TGI: > 100 µM
HL-60(TB) leukemia
  GI50: 5.94 µM
  TGI: 40.6 µM
HOP-62 NSCLC
  GI50: 10.4 µM
  TGI: > 100 µM
HOP-92 NSCLC
  GI50: 3.48 µM
  TGI: 25.1 µM
HS 578T breast
  GI50: 24.7 µM
  TGI: > 100 µM
HT29 colon
  GI50: 77.7 µM
  TGI: > 100 µM
IGROV1 ovarian
  GI50: 70.1 µM
  TGI: > 100 µM
K-562 leukemia
  GI50: 4.49 µM
  TGI: > 100 µM
KM12 colon
  GI50: 21.6 µM
  TGI: > 100 µM
LOX IMVI melanoma
  GI50: 18.4 µM
  TGI: > 100 µM
M14 melanoma
  GI50: 55.2 µM
  TGI: > 100 µM
MALME-3M melanoma
  GI50: 25.6 µM
  TGI: > 100 µM
MCF7 breast
  GI50: 8.81 µM
  TGI: > 100 µM
MDA-MB-231 breast
  GI50: 14.3 µM
  TGI: > 100 µM
MDA-MB-435
  GI50: 12.1 µM
  TGI: > 100 µM
MOLT-4 leukemia
  GI50: 7.59 µM
  TGI: > 100 µM
NCI-H226 lung
  GI50: 23.7 µM
  TGI: > 100 µM
NCI-H23 lung
  GI50: 24.8 µM
  TGI: > 100 µM
NCI-H460 lung
  GI50: > 100 µM
  TGI: > 100 µM
NCI-H522 lung
  GI50: 2.94 µM
  TGI: 8.8 µM
NCI/ADR-RES ovarian
  GI50: 7.85 µM
  TGI: > 100 µM
OVCAR-3 ovarian
  GI50: 35.7 µM
  TGI: > 100 µM
OVCAR-4 ovarian
  GI50: 31.8 µM
  TGI: > 100 µM
OVCAR-5 ovarian
  GI50: > 100 µM
  TGI: > 100 µM
OVCAR-8 ovarian
  GI50: 5.62 µM
  TGI: > 100 µM
RPMI-8226 leukemia
  GI50: 1.82 µM
  TGI: 5.78 µM
RXF 393 renal
  GI50: 17.3 µM
  TGI: > 100 µM
SF-268 CNS
  GI50: 24.6 µM
  TGI: > 100 µM
SF-295 CNS
  GI50: 30 µM
  TGI: > 100 µM
SF-539 CNS
  GI50: > 100 µM
  TGI: > 100 µM
SK-MEL-28 melanoma
  GI50: > 100 µM
  TGI: > 100 µM
SK-MEL-5 melanoma
  GI50: 3.1 µM
  TGI: 15.6 µM
SK-OV-3 ovarian
  GI50: 66.6 µM
  TGI: > 100 µM
SN12C renal
  GI50: 53.9 µM
  TGI: > 100 µM
SNB-19 CNS
  GI50: > 100 µM
  TGI: > 100 µM
SNB-75 CNS
  GI50: 12.8 µM
  TGI: 33.7 µM
SR leukemia
  GI50: 4.9 µM
  TGI: > 100 µM
SW-620 colon
  GI50: 10.2 µM
  TGI: > 100 µM
T-47D breast
  GI50: 2.56 µM
  TGI: 13.5 µM
TK-10 renal
  GI50: 27.1 µM
  TGI: > 100 µM
U251 CNS
  GI50: 17.1 µM
  TGI: > 100 µM
UACC-257 melanoma
  GI50: 16 µM
  TGI: > 100 µM
UACC-62 melanoma
  GI50: 5.15 µM
  TGI: > 100 µM
UO-31 renal
  GI50: 7.27 µM
  TGI: > 100 µM

## COc1cc(-c2nn(-c3cccc(NC(=O)c4cccc(C(F)(F)F)c4)c3)cc2-c2ccncc2)ccc1Cl
786-0 renal
  GI50: 2.45 µM
  TGI: > 50 µM
A498 renal
  GI50: 0.687 µM
  TGI: 2.78 µM
A549 NSCLC
  GI50: 1.87 µM
  TGI: > 50 µM
ACHN renal
  GI50: 1.89 µM
  TGI: > 50 µM
BT-549 breast
  GI50: 2.87 µM
  TGI: 46.8 µM
CAKI-1 renal
  GI50: 2.01 µM
  TGI: > 50 µM
CCRF-CEM leukemia
  GI50: 1.45 µM
  TGI: > 50 µM
COLO 205 colon
  GI50: 1.64 µM
  TGI: 5.17 µM
DU-145 prostate
  GI50: 1.76 µM
  TGI: 32.1 µM
HCC-2998 colon
  GI50: 2.24 µM
  TGI: 17.6 µM
HCT-116 colon
  GI50: 1.67 µM
  TGI: > 50 µM
HCT-15 colon
  GI50: 1.55 µM
  TGI: > 50 µM
HL-60(TB) leukemia
  GI50: 2.02 µM
  TGI: > 50 µM
HOP-92 NSCLC
  GI50: 0.554 µM
  TGI: 3.12 µM
HS 578T breast
  GI50: 1.07 µM
  TGI: > 50 µM
HT29 colon
  GI50: 1.39 µM
  TGI: 20.1 µM
IGROV1 ovarian
  GI50: 1.83 µM
  TGI: > 50 µM
K-562 leukemia
  GI50: 1.4 µM
  TGI: > 50 µM
KM12 colon
  GI50: 1.66 µM
  TGI: > 50 µM
LOX IMVI melanoma
  GI50: 1.39 µM
  TGI: > 50 µM
M14 melanoma
  GI50: 1.63 µM
  TGI: > 50 µM
MALME-3M melanoma
  GI50: 1.89 µM
  TGI: > 50 µM
MCF7 breast
  GI50: 1.43 µM
  TGI: > 50 µM
MDA-MB-231 breast
  GI50: 1.24 µM
  TGI: 9.96 µM
MOLT-4 leukemia
  GI50: 2.01 µM
  TGI: > 50 µM
NCI-H226 lung
  GI50: 1.66 µM
  TGI: 27 µM
NCI-H23 lung
  GI50: 1.56 µM
  TGI: 32.5 µM
NCI-H460 lung
  GI50: 1.45 µM
  TGI: 9.27 µM
NCI-H522 lung
  GI50: 1.05 µM
  TGI: 3.85 µM
NCI/ADR-RES ovarian
  GI50: 1.09 µM
  TGI: 3.17 µM
OVCAR-3 ovarian
  GI50: 1.2 µM
  TGI: 2.98 µM
OVCAR-4 ovarian
  GI50: 2.28 µM
  TGI: > 50 µM
OVCAR-5 ovarian
  GI50: 4.01 µM
  TGI: > 50 µM
OVCAR-8 ovarian
  GI50: 2 µM
  TGI: > 50 µM
PC-3 prostate
  GI50: 1.23 µM
  TGI: > 50 µM
RPMI-8226 leukemia
  GI50: 1.57 µM
  TGI: 26.6 µM
RXF 393 renal
  GI50: 0.812 µM
  TGI: 3.15 µM
SF-268 CNS
  GI50: 2.13 µM
  TGI: > 50 µM
SF-295 CNS
  GI50: 1.02 µM
  TGI: 3 µM
SF-539 CNS
  GI50: 0.895 µM
  TGI: 2.3 µM
SK-MEL-2 melanoma
  GI50: 1.56 µM
  TGI: > 50 µM
SK-MEL-28 melanoma
  GI50: 2.49 µM
  TGI: > 50 µM
SK-MEL-5 melanoma
  GI50: 0.978 µM
  TGI: 2.47 µM
SK-OV-3 ovarian
  GI50: 2.29 µM
  TGI: > 50 µM
SN12C renal
  GI50: 3.31 µM
  TGI: > 50 µM
SNB-19 CNS
  GI50: 2.46 µM
  TGI: > 50 µM
SR leukemia
  GI50: 0.838 µM
  TGI: 4.59 µM
SW-620 colon
  GI50: 2.31 µM
  TGI: > 50 µM
T-47D breast
  GI50: 2.55 µM
  TGI: > 50 µM
TK-10 renal
  GI50: 3.24 µM
  TGI: > 50 µM
U251 CNS
  GI50: 1.62 µM
  TGI: > 50 µM
UACC-257 melanoma
  GI50: 27.9 µM
  TGI: > 50 µM
UACC-62 melanoma
  GI50: 1.94 µM
  TGI: > 50 µM
UO-31 renal
  GI50: 0.969 µM
  TGI: > 50 µM

## [O-]c1c2cc(-[n+]3c(-c4ccccc4)cc(-c4ccccc4)cc3-c3ccccc3)cc1CO[C@@H](c1ccccc1)[C@H](c1ccccc1)OCCOCCO[C@@H](c1ccccc1)[C@H](c1ccccc1)OC2
CCRF-CEM leukemia
  TGI: 0.238 µM
DU-145 prostate
  TGI: 1.14 µM
HS 578T breast
  TGI: 3.12 µM
HT29 colon
  TGI: 0.646 µM
UACC-62 melanoma
  TGI: 1.39 µM
UO-31 renal
  TGI: > 100 µM

## COc1ccc2c(CCCCC(c3ccccc3)c3ccccc3)c3[n+](cc2c1OC)CCc1cc2c(cc1-3)OCO2
HS 578T breast
  GI50: 0.536 µM
  TGI: 3.09 µM
MDA-MB-435
  GI50: 0.106 µM
  TGI: 1.02 µM
NCI-H226 lung
  GI50: 0.28 µM
  TGI: 1.85 µM
NCI/ADR-RES ovarian
  GI50: 1.83 µM
  TGI: 7.48 µM
SK-MEL-5 melanoma
  GI50: 0.0451 µM
  TGI: 0.177 µM
